Data as given in ChEMBL document CHEMBL3507680, “University of Dundee, Gates Library screen for HepG2 cell viability”.

Assay: Human HepG2 cell viability assay in 384 well format
Format: toxicity, cell-based
Set-up: dose 125 nL, time 70.5 hour; concentration not given beside the values
Conditions: HepG2 cells, read-out: Inhibition

SMILES	cytotoxicity at 70.5 h [%]
CC(C)(C)OC(=O)N[C@H]1CCN(C(=O)c2cc(Cl)c[nH]2)C1	-4.47
CN1CCN(Cc2cn3c(n2)CN(C(=O)c2ccco2)CC3)CC1	1.76
CC(NC(=O)c1ccc(=O)n(C)c1)c1ccccc1-n1cccn1 (stereo unspecified)	-19.9
COc1ccc(C(C(=O)O)N2CCCN(C3CCCCC3)CC2)cn1 (stereo unspecified)	-10.2
CC(C)C(NC(=O)c1ccccc1F)C(=O)N1CCC2(CC1)OCCO2 (stereo unspecified)	-1.01
CC(C)(C)c1coc([C@@H]2COCCN2Cc2ncc[nH]2)n1	-0.512
CCN1CC(C(=O)NC(C)(C)CC)CC1=O (stereo unspecified)	-3.27
CC(NC(=O)c1nc(=O)[nH][nH]1)c1ccc(OCC2CC2)c(F)c1 (stereo unspecified)	29.1
CC(C)(C)c1nc(CN2CCOC(Cn3cccn3)C2)no1 (stereo unspecified)	0.39
CCc1[nH]c2c(CNC(=O)C3CCN(C)C3)cc(C)cc2c1C (stereo unspecified)	-8.68
Cc1cccnc1NC(=O)C1CCCN1Cc1ccccc1 (stereo unspecified)	8.68
COc1cccc(-c2nc(CNCCn3cccn3)cs2)c1	-7.96
CN(C)C(=O)c1noc2c1CN(C(=O)CCC1CCCCN1C)CC2 (stereo unspecified)	-4.32
CN(CCCc1cnn(C)c1)C(=O)C1CCCN(C2CCCC2)C1 (stereo unspecified)	7.47
CN(C(=O)CNCCn1cccn1)C1(C#N)CCCCC1	-3.85
Cc1nn2cccnc2c1C(=O)N1CCCC(Nc2ccccc2)C1 (stereo unspecified)	-0.861
CC(=O)NCCNC(=O)C(c1ccccc1C)N(C)C (stereo unspecified)	12.4
Cc1ccc(-c2ccsc2C(=O)NC2CCS(=O)(=O)C2)cc1 (stereo unspecified)	-3.7
CS(=O)(=O)c1ccc(NCc2ccc(F)cc2)cn1	-6.37
O=C([C@H]1C[C@H]2OCC[C@H]2N(Cc2ccoc2)C1)N1CCCO1	-5.69
COc1ccc(C)cc1-n1cnnc1CC1CCNCC1	-3.84

SMILES	cytotoxicity at 70.5 h [%]
CN(C)CC1COCCN1C(=O)C1(c2cccs2)CCCC1 (stereo unspecified)	0.993
O=C(O)c1cc(NS(=O)(=O)c2ccc(Br)s2)c(F)cc1F	1.5
c1ccc(-c2ncc(CN3CCC4(CCNCC4)C3)cn2)cc1	-7.74
COCCN1CCC(CN(CC2CCCO2)C(=O)Cn2cccn2)CC1 (stereo unspecified)	-4.66
CC(=O)Cn1cc(C#N)c(=O)c2cc(Br)ccc21	-13.6
CCN(CC1CCOC1)C(=O)Nc1ccc(N2CCOCC2)nc1 (stereo unspecified)	18.9
O=C1CCCN1c1cccc(CNCc2nc(C3CC3)no2)c1	8.67
CS(=O)(=O)Cc1ccc(C(=O)Nc2ccc3c(c2)C(=O)NC3)cc1	-6.71
CCc1ccc(CNC(=O)Nc2cc(C)on2)s1	-9.95
Cn1cnc(S(=O)(=O)N2CC3(CCN(Cc4ccncc4)C3)C2)c1	-6.66
O=C(Nc1cc(-c2ccncc2)no1)C1CCCCC1	-6.08
Cc1ccc(C(=O)N2Cc3c(CN4CCCCC4)nn(C)c3C2)o1	6.3
COc1cc(C)c(C(C)NC(=O)Nc2nnc(C)s2)cc1OC (stereo unspecified)	-11.5
COc1ccc2c(c1)Cc1c-2nc(N)c(C#N)c1C1CCOC1 (stereo unspecified)	2.5
Cc1csc2c(C3CCN(C(=O)Cn4cncn4)CC3)nc(C)n12	-2.36
CC(=O)OC1CN(c2nc3c(Cl)cccc3s2)C1	-9.84
COc1ccccc1CCc1nc(CC2CCN(C)CC2)no1	-2.87
O=C(c1cnn2c1OCCC2)N1CCN(C/C=C/c2ccccc2)CC1	7.17
CSCc1cc(F)ccc1CNC(=O)N1CCCC1	-4.58
Cc1nc(CC(=O)N2CCN(Cc3ccc(C#N)cc3)CC2)cs1	-1.78
COCC(=O)N1CCC2(CC1)CC(COC)N(c1ncccn1)C2 (stereo unspecified)	-5.32

SMILES	cytotoxicity at 70.5 h [%]
OC1(CNCCSc2ccccn2)CCCNC1 (stereo unspecified)	-6.54
CCO[C@@H]1CC[C@H]2[C@H]1OCCN2C(=O)c1ccc(C)o1	-4.6
Cc1c(C)n(-c2ccccn2)c2nc3c(c(N)c12)CCCCC3	-10.8
O=C(c1cc(Cl)c[nH]1)N1CCN(CCc2ccccn2)CC1	-16
CN1CCN(c2ccc(Br)cc2NC(=O)c2ccco2)CC1	2.12
Cn1ccc(CN2CCC(Oc3ccccc3)CC2)cc1=O	-12
Cn1cc(CN2CCn3cc(Cn4cccn4)nc3C2)cn1	44.1
Cc1cccc(COC2COC3(CCN(S(C)(=O)=O)CC3)C2)n1 (stereo unspecified)	-0.691
Cc1nc(C2CCCN2CCS(C)(=O)=O)no1 (stereo unspecified)	21.3
CC(=O)N(C)c1nc(CN2CCOC(Cn3cccn3)C2)cs1 (stereo unspecified)	-11.7
CC(C)[C@H]1CN(C(=O)CC2CCC2)C[C@@H]1N(C)C	18.9
CC(C)NC(=O)c1nc(COc2ccc3c(c2)OCO3)no1	-8.71
CC(C)C(C)(C#N)NC(=O)CN1CCC(c2ccnn2CCO)CC1 (stereo unspecified)	-3.64
O=C(NC1CCCCC1)c1ccc(Oc2ccc3nncn3n2)cc1	-7.56
COc1cccc(CN(C)Cc2nc3cc(C)ccc3[nH]2)c1O	-2.34
COCCN(C)CC(=O)N1C[C@@H](C)[C@](O)(C(C)C)C1	-1.28
O=C(NC[C@@]1(COc2cnccn2)C[C@@H](O)[C@@H](O)C1)C1CC1	15
CN(Cc1cccs1)C(=O)c1ccc(N2CCOCC2)c(F)c1	12.4
Nc1cc(-c2cccs2)nn(CC(=O)N2CCc3ccccc32)c1=O	-2.52
c1coc(CNCC2Cn3nncc3CO2)c1 (stereo unspecified)	-8.73
O=C(c1cc2ccccc2[nH]1)N1CCCCC1Cn1cccn1 (stereo unspecified)	-1.58

SMILES	cytotoxicity at 70.5 h [%]
CN(Cc1ccc(Br)s1)Cn1nc(-c2ccc(F)cc2)oc1=O	-4.35
c1ccc(CO[C@@H]2C[C@H]3CN(c4ncccn4)CCN3C2)nc1	-7.06
COCCCN1CC2(CCCCN2C(C)=O)CC1=O (stereo unspecified)	-7.86
CC(C)(C)C(=O)NS(=O)(=O)c1ccc(C#N)c(C(F)(F)F)c1	7.04
CCc1cc(=O)n(CC(=O)N2CCC(C)CC2)c(-c2cccc(F)c2)n1	-3.1
CCn1ccnc1CNc1nccc(-c2cn(C)nc2C)n1	-2.79
Cc1cccc(-n2ncc3c(=O)n(CCN4CCCCC4)cnc32)c1C	28
Cc1nccn1-c1cc(CNC(=O)CCS(=O)(=O)C2CCCC2)ccn1	10.7
Cc1cccc(C(=O)N2C[C@@H](OCc3cccnc3)[C@H]3OCCC[C@@H]32)n1	-1.75
C=Cn1ncc(CN2C[C@@H]3CCCN3C[C@@H]2Cc2ccccc2)c1C	-2.66
COCC1CC2(CCN(Cc3ccc(OC)cc3)CC2)CN1C(C)C (stereo unspecified)	-13.7
CCc1nc(C2CCCN2C(=O)CCNS(C)(=O)=O)no1 (stereo unspecified)	0.333
Cc1nnsc1CN1C[C@@H]2CC[C@H](C1)N(Cc1c(C)noc1C)C2=O	-0.902
CN(Cc1cccnc1)C[C@@H]1OC[C@H]2CN(Cc3ccoc3)CC[C@H]21	-0.956
Cc1nc(O)cc(C2CCCN(C(=O)COCc3ccccc3)C2)n1 (stereo unspecified)	1.06
CCn1cnnc1CNC(=O)N1CCC(C(=O)NC)CC1	1.9
CCOc1ccnc(NCc2nc(C)cc(=O)[nH]2)n1	-6.71
COCCc1noc(CN2CCCCC2Cn2nc(C)cc2C)n1 (stereo unspecified)	-1.86
